Measured values published in publication PMC12000391, “Selective molecular inhibition of the HDAC6 ZnF-UBP binding domain impairs multiple myeloma cell function” (Cell Death Discovery, 2025).
Ends that are not written are not given here.

B1: HDAC6 ZnF-UBP 1109-1215 (protein)
chain: PLPWCPHLVAVCPIPAAGLDVTQPCGDCGTIQENWVCLSCYQVYCGRYINGHMLQHHGNSGHPLVLSYIDLSAWCYYCQAYVHHQALLDVKNIAHQNKFGEDMPHPH

How the values were obtained:
[1] = biological target: T1, HDAC6 ZnF-UBP binding domain (ZnF-UBP^WT peptide, HDAC6^1109-1215) (Homo sapiens, UniProt Q9UBN7); assay: fluorescence polarization displacement of FITC-RLRGG
T1 construct: methods b47 print 1190-1215, apparently a misprint), expressed in E. coli BL21 Star (DE3), HisTrap purified
T1 sequence (Q9UBN7 1109-1215): B1 chain
From the text: fluorescence polarization displacement of FITC-RLRGG on HDAC6 ZnF-UBP binding domain (ZnF-UBP^WT peptide, HDAC6^1109-1215)

[2] = biological target: T2, ubiquitin C-terminal pentapeptide RLRGG (Homo sapiens, also: FITC label, site not given here); assay: fluorescence polarization
T2 chain: RLRGG

| Molecule | IC50 [1] [µM] | Kd [2] [µM] |
| --- | --- | --- |
| Cn1c(CCC(=O)O)nc2ccccc2c1=O [1a, quinazolinone 1a] | 2.7 ± 0.3 | – |
| Cc1ccc2nc(CCC(=O)O)n(C)c(=O)c2c1 [1d, Quinazolinone 1 d] | 13.6 ± 1 | – |
| Cc1ccc2c(=O)n(C)c(CCC(=O)O)nc2c1 [1g, Quinazolinone 1 g] | 2.1 ± 0.1 | – |
| COc1ccc2nc(CCC(=O)O)n(C)c(=O)c2c1 [1c, Quinazolinone 1c] | 2.1 ± 0.5 | – |
| Cn1c(CCC(=O)O)nc2cc([N+](=O)[O-])ccc2c1=O [1f, Quinazolinone 1 f] | 2.3 ± 0.2 | – |
| Cn1c(CCC(=O)O)nc2ccc(Cl)cc2c1=O [1b, Quinazolinone 1b] | 1.9 ± 0.2 | – |
| Cn1c(CCC(=O)O)nc2cc(Cl)ccc2c1=O [1e, Quinazolinone 1e] | 1.9 ± 0.1 | – |
| B1 | – | 0.68 |
